Assay results reported in patent publication US9345738B2, “Methods for the prevention or treatment of no-reflow following ischemia/reperfusion injury” (Stealth BioTherapeutics Corp., priority 2010, dated 2016).
Non-standard residues stand in square brackets, D forms with d. No end group written: not given here.

Experiments:
mu-opioid receptor = settings: stated in the description, no data shown; cited from earlier work
[1] = test system: plasma membrane of several mammalian cell types; settings: Zhao et al., 2003; cited from earlier work
[2] = test system: kidney, ischemia/reperfusion insult; assay: Rat model of renal ischemia-reperfusion; assay type: in vivo, Sprague Dawley rat; settings: rats; 3 mg/kg 30 min before ischemia and before reperfusion; 45 min ischemia and 24 h reperfusion; predicted
Protocol: Sprague Dawley rats (250-300 g) are assigned to three groups: (1) sham surgery group without I/R; (2) I/R+saline vehicle treatment; (3) I/R+D-Arg-2′,6′-Dmt-Lys-Phe-NH2 (acetate salt) treatment. D-Arg-2′,6′-Dmt-Lys-Phe-NH2 (acetate salt) (3 mg/kg, dissolved in saline) is administered to rats 30 min before ischemia and immediately before onset of reperfusion. The control rats are given saline alone on the same schedule. Rats are anesthetized with a mixture of ketamine (90 mg/kg, i.p.) and xylazine (4 mg/kg, i.p.). The left renal vascular pedicle is occluded temporarily using a micro-clamp for 30 or 45 min. At the end of the ischemic period, reperfusion is established by removing of the clamp. At that time, the contralateral right kidney is removed. After 24 h reperfusion, animals are sacrificed and blood samples were obtained by cardiac puncture. Renal function is determined by blood urea nitrogen (BUN) and serum creatinine (BioAssay Systems DIUR-500 and DICT-500).
Analysis of No-reflow Zones, and Necrosis. The kidneys are sliced transversely into 6-8 sections. The slices are photographed under ultraviolet light to identify the region of no reflow. The areas of no-reflow in each slice are digitized using Image J (supplier Rasband WS, Image J, National Institutes of Health). […]

[3] = test system: rabbit heart, ischemia/reperfusion insult; assay: Rabbit model of AMI: regional myocardial ischemia (30 min CAO) and reperfusion (3 h); risk zone, no-reflow zone and infarct size; assay type: in vivo, New Zealand White rabbit; settings: for No-reflow/area at risk / No-reflow/area of necrosis: all hearts with AR >10% of LV, mean ± SEM; for Mean IA/AR: low dose
[4] = test system: brain, ischemia/reperfusion insult; assay: Mouse model of cerebral ischemia-reperfusion (occlusion of the middle cerebral artery); assay type: in vivo; settings: wild type mice; 2-5 mg/kg ip at 0, 6, 24 and 48 h after ischemia; predicted
Protocol: Cerebral ischemia initiates a cascade of cellular and molecular events that lead to brain damage. One such event is an anatomic zone of no-reflow. Cerebral ischemia is induced by occlusion of the right middle cerebral artery for 30 min. Wild-type (WT) mice are given either saline vehicle (Veh) (ip) or D-Arg-2′,6′-Dmt-Lys-Phe-NH2 (acetate salt) (2-5 mg/kg) at 0, 6, 24 and 48 h after ischemia. Mice are killed 3 days after ischemia. The brains are sliced transversely into 6-8 sections. The slices are photographed under ultraviolet light to identify the region of no-reflow. The areas of no-reflow in each slice are digitized using Image J (supplier Rasband WS, Image J, National Institutes of Health). The areas in each slice are multiplied by the weight of the slice and the results will summed in order to obtain the mass of the no-reflow areas.
As such, the peptide D-Arg-2′,6′-Dmt-Lys-Phe-NH2 is effective in reducing the incidence of no-reflow caused by ischemia-reperfusion in the brain.

[5] = test system: anatomic zone of no-reflow in the heart; assay: No-reflow phenomenon in humans with ST-segment elevation treated with PCI; assay type: in vivo, human; settings: patients; iv bolus less than 10 min before direct stenting; vs placebo; predicted
Protocol: Men and women, 18 years of age or older, who present within 6 hours after the onset of chest pain, who have ST-segment elevation of more than 0.1 mV in two contiguous leads, and for whom the clinical decision is made to treat with percutaneous coronary intervention (PCI) are eligible for enrollment. Patients are eligible for the study whether they are undergoing primary PCI or rescue PCI. Occlusion of the culprit coronary artery (Thrombolysis in Myocardial Infarction [TIMI] flow grade 0) at the time of admission is also a criterion for inclusion.
Left ventricular and coronary angiography is performed with the use of standard techniques, just before revascularization. […]
The primary end point is the size of the anatomic zone of no-reflow as assessed by one or more imaging techniques. Re-flow phenomenon is assessed using myocardial contrast echocardiography, coronary angiography, myocardial blush, coronary doppler imaging, electrocardiography, nuclear imaging single-photon emission CT, using thallium or technetium-99m, or PET. […] Post-contrast delayed enhancement is used on day 4±1, day 30±3 and 6+1.5 months after successful PCI and stenting to quantify infracted myocardium. This is defined quantitatively by an intensity of the myocardial post-contrast signal that is more than 2 SD above that in a reference region of remote, non-infarcted myocardium within the same slice. […]

[6] = Group 1, N=15, infusion from 10′ after CAO
[7] = Group 2, N=17, infusion from 20′ after CAO
[8] = Group 3, N=17, infusion from 29′ after CAO

Tyr-D-Arg-Phe-Lys-NH2
mu-opioid receptor agonist activity (mu-opioid receptor): has mu-opioid receptor agonist activity

2′,6′-Dmt-D-Arg-Phe-Lys-NH2
penetration of the plasma membrane [1]: readily penetrates the plasma membrane of several mammalian cell types in an energy-independent manner

F[dR]FK-NH2
mu-opioid receptor agonist activity (mu-opioid receptor): does not have mu-opioid receptor agonist activity

D-Arg-2′,6′-Dmt-Lys-Phe-NH2
anatomic zone of no-reflow in the kidney [2]: prevents or reduces the anatomic zone of no-reflow | No-reflow/area at risk [3, 6]: 0.23 ± 0.02 | No-reflow/area of necrosis [3, 6]: 0.74 ± 0.04 | No-reflow/area at risk [3, 7]: 0.21 ± 0.03 | No-reflow/area of necrosis [3, 7]: 0.63 ± 0.05 | No-reflow/area at risk [3, 8]: 0.21 ± 0.03 | No-reflow/area of necrosis [3, 8]: 0.70 ± 0.09 | no-reflow for any given risk zone size ([3]; rabbit AMI, ANCOVA, treated groups combined vs control p=0.0085): significantly reduced | infarct size reduced by up to ([3]; rabbit AMI, in some experiments (Table 13; FIG. 5)): up to 44.7% | infarct size reduced, average ([3]; rabbit AMI, in some experiments (not shown)): 11% | Results: reduction of mean IA/AR from placebo ([3]; rabbit AMI, infusion started 10 min into 30 min of ischemia): ↓44.7% from placebo | Results: reduction of mean IA/AR from placebo ([3]; rabbit AMI, infusion started 20 min into 30 min of ischemia): ↓25.5% from placebo | Results: reduction of mean IA/AR from placebo ([3]; rabbit AMI, infusion started 30 min into ischemia immediately prior to reperfusion): ↓25.5% from placebo | Mean IA/AR ([3]; rabbit AMI, iv infusion started 10 min into 30 min of ischemia): 20.7% | Mean IA/AR ([3]; rabbit AMI, iv infusion started 20 min into 30 min of ischemia): 27.9% | Mean IA/AR ([3]; rabbit AMI, iv infusion started 30 min into ischemia immediately prior to reperfusion): 26.7% | reduction in the extent of no-reflow compared with control hearts (trend) ([3]; rabbit AMI, treated vs control): 21% | Necrotic area divided by area-at-risk (AN/AR), mean ([3]; rabbits with AR/LV >15%, all active groups combined, N=48): 0.318 | anatomic zone of no-reflow in the brain [4]: prevent or reduce the anatomic zone of no-reflow | infarct volume [4]: significant reduction in infarct volume | mu-opioid receptor agonist activity (mu-opioid receptor): does not have mu-opioid receptor agonist activity | size of the anatomic zone of no-reflow [5]: smaller anatomic zone of no-reflow than that seen with placebo
